Results: patent US10138240B2, “Crystal of 5-hydroxy-4-(trifluoromethyl)pyrazolopyridine derivative” (Daiichi Sankyo Company, Limited, priority 2015, dated 2018)
pEC50: −log10 of the molar value.

Experiments:
cynomolgus monkey = assay: Drug efficacy test in cynomolgus monkeys (plasma HDL cholesterol); assay type: in vivo; conditions: oral, single dose of 10 mg/kg, from AUC before administration and 24 hours after administration
Method: Each test drug was dissolved in a propylene glycol (Sigma-Aldrich Corp.)-Tween 80 (Sigma-Aldrich Corp.) mixed solution [4/1 (v/v)] or a 0.5% (w/v) methylcellulose aqueous solution, and the solution was orally administered to a cynomolgus monkey for 1 or 7 days. At 1 or 7 day of administration period, blood was collected before administration and after administration, and plasma was obtained. The content of cholesterol in the plasma was measured using a commercially available assay kit (Cholesterol-E Wako, Wako Pure Chemical Industries, Ltd.). The lipoprotein profile was analyzed by HPLC (column: LipopropakXL, manufactured by Tosoh Corp.). The contents of HDL cholesterol and non-HDL cholesterol were calculated according to the following calculation expression: Content of HDL cholesterol=Content of cholesterol in the plasma×(Peak area of HDL cholesterol/Total sum of peaks) Content of non-HDL cholesterol=Content of cholesterol in the plasma×(Peak area of non-HDL cholesterol/Total sum of peaks)
The rate (%) of increase in HDL level after the administration of a single dose of 10 mg/kg compared with before administration was determined from the AUC before administration and 24 hours after administration.

LCAT = LCAT (Homo sapiens (Human), UniProt P04180); assay: LCAT activity measurement (in vitro), HDL3 fraction from human plasma as enzyme source and acceptor; assay type: biochemical; conditions: HDL3 1 mg/mL from plasma of a healthy person, [14C]cholesterol, 37° C., approximately 16 hours; read-out: EC50 of LCAT activation
Method: A fraction composed of HDL3 (1.125<specific gravity <1.210 g/mL) was obtained from the plasma of a healthy person by density gradient centrifugation. The obtained fraction was dialyzed against phosphate-buffered saline (pH 7.4) and used as an enzyme source and an acceptor for LCAT. Each test drug was prepared by dissolution in dimethyl sulfoxide. [^14C]Cholesterol containing DTNB (Ellman's reagent, final concentration: 0.5 mM), mercaptoethanol (final concentration: 12.5 mM), and 0.6% bovine serum albumin was added to phosphate-buffered saline (pH 7.4) containing 1 mg/mL HDL3, and the test drug was further added thereto at varying concentrations to adjust the whole amount to 80 μL. This mixture was incubated at 37° C. for approximately 16 hours. Then, a mixed solution of hexane and isopropanol (mixing ratio=3:2) was added thereto to stop the reaction. After stirring, the hexane layer was collected, and this layer was evaporated to dryness. […] The radioactivity of a portion corresponding to cholesterol oleate was measured using an imaging analyzer BAS-2500 (manufactured by Fujifilm Corp.). […] The EC50 value of LCAT activation was calculated according to the expression given below relative to the LCAT activity in the sample non-supplemented with the test drug. […]

Chain of LCAT (P04180 25-440): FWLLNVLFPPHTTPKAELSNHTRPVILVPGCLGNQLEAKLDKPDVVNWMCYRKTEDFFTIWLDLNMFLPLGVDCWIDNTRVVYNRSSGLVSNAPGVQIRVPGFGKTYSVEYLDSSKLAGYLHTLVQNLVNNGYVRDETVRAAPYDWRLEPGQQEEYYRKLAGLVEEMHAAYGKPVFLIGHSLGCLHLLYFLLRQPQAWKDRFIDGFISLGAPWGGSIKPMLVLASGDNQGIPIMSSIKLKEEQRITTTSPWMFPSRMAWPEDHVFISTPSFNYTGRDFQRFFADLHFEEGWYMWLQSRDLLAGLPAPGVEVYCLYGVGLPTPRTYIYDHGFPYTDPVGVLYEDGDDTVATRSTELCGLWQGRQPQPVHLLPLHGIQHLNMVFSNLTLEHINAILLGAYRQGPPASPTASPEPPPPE

pEC50 (LCAT) | SMILES | Rate of increase in HDL level after administration of single dose (cynomolgus monkey)
8.40 | O=C1Nc2[nH]nc(C3CCN(c4cnc(C(F)(F)F)cn4)CC3)c2C(O)(C(F)(F)F)C1O (single isomer, unassigned; (+)) [Example 1(4), (+)-4,5-Dihydroxy-4-(trifluoromethyl)-3-{1-[5-(trifluoromethyl)pyrazin-2-yl]piperidin-4-yl}-1,4,5,7-tetrahydro-6H-pyrazolo[3,4-b]pyridin-6-one] | 590%
7.74 | O=C1Nc2[nH]nc(C3CCN(c4cnc(C(F)(F)F)nc4)CC3)c2[C@@H](C(F)(F)F)[C@H]1O [Example 6(4), (+)-cis-5-Hydroxy-4-(trifluoromethyl)-3-{1-[2-(trifluoromethyl)pyrimidin-5-yl]piperidin-4-yl}-1,4,5,7-tetrahydro-6H-pyrazolo[3,4-b]pyridin-6-one] | 483%
